Assay results published in patent US20210400971A1, “SAFENING COMPOSITIONS COMPRISING A PHENOXY HERBICIDE AND CLOQUINTOCET FOR CEREAL CROPS AND METHODS THEREOF” (DOW AGROSCIENCES LLC, priority 2018, published 2021).
Like-named read-outs stand apart in the source and are kept apart here.

Experiments:
wheat = details: cited from earlier work
[1] = test system: durum wheat (Triticum durum; TRZDU); test: 2016 field trial, Alberta: weed-free tolerance trial, visual phytotoxicity (head deformity) on durum wheat
Method: (§1) One field trial was conducted in Alberta, Canada in 2016 to evaluate whether wheat injury caused by 2,4-D could be reduced by tank-mixing with a herbicide that is preformulated with cloquintocet acid. 2,4-D was applied as either an ester (660 gae/L 2,4-D EHE) or choline salt (456 gae/L 2,4-D choline) at a rate of 700 gae/ha. […] Some treatments were applied with Intake adjuvant at 1% v/v. Intake is a blend of a non-ionic surfactant and a paraffinic oil and is used to improve the spreading and wetting of herbicides. Herbicide treatments were made to spring wheat (Triticum aestivum) and durum wheat (Triticum durum) at the B12-B13 stage. Head deformity was evaluated at 42, 55 and 71 days after treatment (DAT).
(§2) This trial was established a weed-free tolerance trial. All herbicide treatments were applied post-emergence in the spring (e.g., Jun. 2, 2016). Herbicides were applied with a tractor-mounted sprayer using CO2 as a propellant. The sprayer delivered a uniform spray pattern that provided thorough coverage of the foliage using a 100 L/ha spray volume. Applications were made to spring wheat and durum wheat at the 2-3 leaf stage. Phytotoxicity to wheat was visually assessed as percent overall injury, compared to an untreated control plot. The overall injury assessments were based on visual ratings of growth inhibition, leaf deformity, epinasty, chlorosis, and delay in maturity. The primary injury observed with 2,4-D was head deformity, and therefore those are the only evaluations summarized below. The trial was designed as a randomized complete block with four replicates. Referring now to Table 1, 2,4-D ester (e.g., 2,4-D EHE) and 2,4-D choline at a rate of 700 gae/ha caused head deformity to spring wheat peaking at 8% and to durum wheat peaking at 4%. […] The results provide that cloquintocet (or herbicides containing cloquintocet) could be mixed with 2,4-D ester or choline to reduce head deformity in spring wheat caused by early applications of 2,4-D.

[2] = test system: spring wheat (Triticum aestivum; TRZAS); test: 2016 field trial, Alberta: weed-free tolerance trial, visual phytotoxicity (head deformity) on spring wheat
Method: as §1, §2

[3] = test system: durum wheat (Triticum durum; TRZDU); details: in vivo
Method: (§3) Two weed-free tolerance field trials were conducted in Alberta and Manitoba, Canada in 2017 to evaluate whether wheat injury caused by 2,4-D ester could be reduced by tank-mixing with cloquintocet-containing products. […] The rate of cloquintocet parent acid delivered by the tank-mix partners ranged from 3.5 to 63.7 gae/ha. All herbicide treatments were applied post-emergence in the spring (Jun. 16, 2017 to Jun. 26, 2017). Herbicides were applied with tractor- or bicycle-mounted sprayers using CO2 as a propellant. The sprayer delivered a uniform spray pattern that provided thorough coverage of the foliage using a 100 L/ha spray volume. Applications were made to spring wheat (Triticum aestivum) and durum wheat (Triticum durum) at the three-leaf stage. Phytotoxicity to wheat was visually assessed as percent overall injury, compared to an untreated control plot. The overall injury assessments were based on visual ratings of growth inhibition, leaf deformity, epinasty, chlorosis, and delay in maturity. […] Head deformity was evaluated at 10 to 12 weeks after treatment (WAT). The trial was designed as a randomized complete block with four replicates.

[4] = test system: spring wheat (Triticum aestivum; TRZAS); details: in vivo
Method: as §3

[5] = test system: spring wheat (Triticum aestivum; TRZAS); test: 2018 field trials, Alberta, Saskatchewan and Manitoba: growth inhibition, head deformity and yield loss on spring wheat; format: in vivo; details: for % Growth Inhibition (66 DAT) TRZAS / % Head Deformity (66 DAT) TRZAS / % Yield Loss (77 DAT) TRZAS: Field Trial 1; for % Growth Inhibition (66 DAT) TRZAS / % Head Deformity (66 DAT) TRZAS / % Yield Loss (77 DAT) TRZAS / % Growth Inhibition (7 DAT) TRZAS / % Growth Inhibition (14 DAT) TRZAS: herbicide 700 gae/ha; for % Yield Loss (77 DAT) TRZAS: relative to commercial standard REXADE A at 20 gae/ha; for % Growth Inhibition (7 DAT) TRZAS: Field Trial 2; for % Growth Inhibition (14 DAT) TRZAS: Field Trial 3
Method: (§4) Growth inhibition was evaluated at 7, 14, and 66 days after treatment (DAT), head deformity was evaluated at 66 days after treatment (DAT), and yield was taken at 77 days after treatment (DAT). All treatments are illustrated in Table 3.
Weed-free tolerance trials were established. […] The primary injury observed with 2,4-D was growth inhibition, head deformity, and yield loss, therefore those are the only evaluations summarized below.

[6] = test system: durum wheat (Triticum durum; TRZDU); test: 2018 field trials, Alberta, Saskatchewan and Manitoba: growth inhibition, head deformity and yield loss on durum wheat; format: in vivo; details: herbicide 700 gae/ha; for % Growth Inhibition (66 DAT) TRZDU / % Head Deformity (66 DAT) TRZDU / % Yield Loss (77 DAT) TRZDU: Field Trial 1; for % Yield Loss (77 DAT) TRZDU: relative to commercial standard REXADE A at 20 gae/ha; for % Growth Inhibition (7 DAT) TRZDU: Field Trial 2; for % Growth Inhibition (14 DAT) TRZDU: Field Trial 3
Method: as §4
Weed-free tolerance trials were established.

[7] = 42 DAT, herbicide 700 gae/ha, safener 0, Intake @1% v/v
[8] = 55 DAT, herbicide 700 gae/ha, safener 0, Intake @1% v/v
[9] = 71 DAT, herbicide 700 gae/ha, safener 0, Intake @1% v/v

In the case of 2,4-D amine, the wheat yield reduction (wheat; applied at Stage 13) is listed as 35% and the wheat yield reduction (wheat; applied at Stage 44) is listed as 15%.
For `O=C(O)COc1ccc(Cl)cc1Cl` [2,4-D Choline, 2-hydroxy-N,N,N-trimethylethanaminium 2-(2,4-dichlorophenoxy)acetate], the “% TRZDU Head Deformity” value [1, 7] was 0.0%, the “% TRZDU Head Deformity” value [1, 8] was 3.5% and the “% TRZDU Head Deformity” value [1, 9] was 0.8%. The “% TRZAS Head Deformity” value [2, 7] was 5.8%, the “% TRZAS Head Deformity” value [2, 8] was 5.8% and the “% TRZAS Head Deformity” value [2, 9] was 3.0%.
For `CCCCC(CC)COC(=O)COc1ccc(Cl)cc1Cl` (stereo not drawn) [2,4-D Ester, 2-ethylhexyl 2-(2,4-dichlorophenoxy)acetate], the “head deformity to durum wheat, peak” value ([1]; Triticum durum (durum wheat), in vivo) was no more than 4%, the “% TRZDU Head Deformity” value ([1]; Triticum durum (durum wheat), in vivo, 42 days) was 0.0% and the “% TRZDU Head Deformity” value ([1]; Triticum durum (durum wheat), in vivo, 55 days) was 4.3%. The “% TRZDU Head Deformity” value ([1]; Triticum durum (durum wheat), in vivo, 71 days) was 3.0%, the “head deformity to durum wheat, peak” value [3] was no more than 4% and the “% TRZDU Head Deformity” value ([3]; 12 weeks) was 0.0%. For the same molecule, the “head deformity to spring wheat, peak” value [4] was no more than 10%, the wheat yield reduction (wheat; applied at Stage 13) was 39% and the wheat yield reduction (wheat; applied at Stage 44) was 16%. The “head deformity to spring wheat, peak” value ([2]; Triticum aestivum (spring wheat), in vivo) was no more than 8%, the “% TRZAS Head Deformity” value ([2]; Triticum aestivum (spring wheat), in vivo, 42 days) was 6.5% and the “% TRZAS Head Deformity” value ([2]; Triticum aestivum (spring wheat), in vivo, 55 days) was 7.5%. The “% TRZAS Head Deformity” value ([2]; Triticum aestivum (spring wheat), in vivo, 71 days) was 7.8%, the “injury” value ([5]; 2018 trials, applied alone or with Agral 90, spring and durum wheat) was “caused growth inhibition, head deformity and yield loss” and the “% Growth Inhibition (66 DAT) TRZAS” value ([5]; safener 0, Agral 90 @ […]) was 9.1%. For the same molecule, the “% Head Deformity (66 DAT) TRZAS” value ([5]; safener 0, Agral 90 @ […]) was 40%, the “% Growth Inhibition (66 DAT) TRZAS” value ([5]; safener 0, no adjuvant) was 10.1% and the “% Head Deformity (66 DAT) TRZAS” value ([5]; safener 0, no adjuvant) was 40%. For the same molecule, the “% Yield Loss (77 DAT) TRZAS” value ([5]; safener 0, Agral 90 @ […]) was 3.3%, the “% Yield Loss (77 DAT) TRZAS” value ([5]; safener 0, no adjuvant) was 4.5% and the “% Growth Inhibition (7 DAT) TRZAS” value ([5]; safener 0, Agral 90 @ […]) was 8%. For the same molecule, the “% Growth Inhibition (7 DAT) TRZAS” value ([5]; safener 0, no adjuvant) was 4.5%, the “% Growth Inhibition (14 DAT) TRZAS” value ([5]; safener 0, Agral 90 @ […]) was 7.5% and the “% Growth Inhibition (14 DAT) TRZAS” value ([5]; safener 0, no adjuvant) was 7%. The “% Growth Inhibition (66 DAT) TRZDU” value ([6]; safener 0, Agral 90 @ […]) was 1.9%, the “% Head Deformity (66 DAT) TRZDU” value ([6]; safener 0, Agral 90 @ […]) was 5.3% and the “% Growth Inhibition (66 DAT) TRZDU” value ([6]; safener 0, no adjuvant) was 2.6%. The “% Head Deformity (66 DAT) TRZDU” value ([6]; safener 0, no adjuvant) was 5%, the “% Yield Loss (77 DAT) TRZDU” value ([6]; safener 0, Agral 90 @ […]) was 8.8% and the “% Yield Loss (77 DAT) TRZDU” value ([6]; safener 0, no adjuvant) was 6.1%. For the same molecule, the “% Growth Inhibition (7 DAT) TRZDU” value ([6]; safener 0, Agral 90 @ […]) was 8.5%, the “% Growth Inhibition (7 DAT) TRZDU” value ([6]; safener 0, no adjuvant) was 5.5% and the “% Growth Inhibition (14 DAT) TRZDU” value ([6]; safener 0, Agral 90 @ […]) was 8.5%. The “% Growth Inhibition (14 DAT) TRZDU” value ([6]; safener 0, no adjuvant) was 7%.
